In paper PMC11111691, “Cystine-knot peptide inhibitors of HTRA1 bind to a cryptic pocket within the active site region” (Nature Communications, 2024):
“Also recorded” adds a separate entry of the source. Positions of bridges follow the written chain, without caps; N, C: chain ends. Residues, ends and D or L forms follow the SMILES beside them.

What was measured:
[1] = CKP stability assay; type: physicochemical; conditions: chemical stability, PBS containing 0.15% DMSO, 0.3 mM (~1 mg/ml), 37 °C, LC-MS, HPLC UV 220 nm peak area normalized to DMSO peak, two independent experiments, preliminary
Description: The CKPs 1G10 and 1G10-ENI were incubated in PBS containing 0.15% DMSO at a concentration of 0.3 mM (~1 mg/ml) at 37 °C for 30 days. Samples from two independently performed experiments were frozen at −20 °C until further analysis. Thawed samples were diluted in H2O and injected into LC-MS (Agilent). From the HPLC UV trace (at 220 nm) the CKP peak area was normalized to the DMSO peak area from the same run. The values obtained from multiple HPLC runs were averaged and shown as dot plot.

[2] = system: HeLa cells; assay: Cell toxicity assay (CellTiter-Glo), HeLa; type: cell-based; conditions: 0.6-50 µM CKP, 24 h and 72 h, at least three independent experiments
Description: (§1) reduction at the highest CKP concentration of 50 µM after 72 h (see results below). The absence of cell toxicity is likely due to the inability of the CKPs to penetrate cell membranes, which was experimentally determined in response to another reviewer. Due to space limitations we have not […]
(§2) Protocol of cell toxicity assay (Figure above):
(§3) HeLa cells or C32 melanoma cells were passaged in DMEM media supplemented with 10% FBS, 1% pen-strep and 1x Glutamax using standard culture conditions (5% CO2, 90% humidity at 37°C). At approximately 95% confluence cells were trypsinized, seeded onto 96-well plates (Corning) at 10,000 cells/well and grown for 24 h. Cells were then incubated with the CKPs 3B3, 1D3-ENI and 1G10-ENI (0, 0.6, 1.9, 5.6, 16.7 and 50 µM) at 37°C for 24 h or for 72h. As a positive control we used staurosporine (STS; 1µM). Cell viability was measured using the CellTiter-Glo luminescent cell viability assay (Promega) on an Envision Multilabel plate reader. Average of at least three independent experiments ± S.D. were plotted in Prism 10. Two-way ANOVA was performed on each dataset and compared to no drug samples and no significant viability reductions were observed, except for some treatments at the […]

[3] = system: MDCK monolayer; assay: MDCK trans-well cell permeability assay; type: in vitro ADME, canine; conditions: MDCK trans-well, apical to basolateral, up to 50 µM, 16 h, mass spectrometry
Description: (§4) We carried out a cell permeability study using a MDCK trans-well assay, which is commonly
(§5) used at Genentech for permeability screening of compounds . This assay measures the flux of test
(§6) compound (Papp, apparent permeability) across a MDCK monolayer from the apical to the
(§7) basolateral compartment over a 16 h period.
sensitive mass spectrometry method .
(§8) 10x10-6 cm/s and compounds with Papp values of <1x10-6 cm/s are considered to be of low
Protocol of permeability assay:
(§9) Experiments were carried out as described (Chen et al. Evaluating the utility of canine Mdr1 knockout
(§10) Madin-Darby canine kidney I cells in permeability screening and efflux substrate determination, Mol
(§11) Cells were seeded in 96-well Corning Transwell plates (PET membrane, 1 µm pore size) at 75,000 cells
(§12) per well and grown in DMEM media supplemented with 10% FBS, 1% pen-strep and 1x Glutamax at
(§13) 37C, 5% CO2 for 48 h to ensure monolayer formation. Stock solutions of the three CKPs 1B3, 1D3-ENI
(§14) and 1G10-ENI were diluted in Hank's Balanced Salt solution containing 25 mM HEPES, pH 7.4 and 25
(§15) µM of the monolayer integrity marker lucifer yellow. CKPs at a concentration of 50 µM were added to
(§16) the apical (donor) chamber and the CKP the apparent permeability (Papp) was determined by quantifying
(§17) the amount of CKP in the basolateral (receiver) chamber after 16 h incubation at 37C, 5% CO2. The
(§18) samples from the basolateral chamber were supplemented with the experiment analytical internal standard
(§19) (100 nM propranolol in 50% ACN:50% water with 0.1% formic acid) and then injected in a Sciex Zeno
(§20) TOF 7600 mass spectrometer using TOF/MS mode.

[4] = MDCK trans-well cell permeability assay; type: in vitro ADME, canine; conditions: dog, MDCK trans-well (protocol of Chen et al. 2018, canine Mdr1 knockout MDCK I), apical to basolateral, 50 µM CKP, 37C, 5% CO2, HBSS 25 mM HEPES pH 7.4, TOF/MS read-out, n = 4-6, read-out: Papp (apparent permeability)
Description: as §4, §5, §6, §7
sensitive mass spectrometry method .
as §8
Protocol of permeability assay:
as §9, §10, §11, §12, §13, §14, §15, §16, §17, §18, §19, §20

[5] = system: C32 melanoma cells; assay: Cell toxicity assay (CellTiter-Glo), C32; type: cell-based, human; conditions: for Viability reduction, C32 cells, 72 h: 50 µM CKP; for Cell viability, C32 melanoma cells: 0.6-50 µM CKP, 24 h and 72 h, at least three independent experiments
Description: as §1, §2, §3

SMILES	Stability: intact peptide after 30 days [1]	Cell viability, HeLa cells [2]	Cell permeability in the MDCK cell assay [3]	Papp A→B at 16 h, 50 µM [4]	Viability reduction, C32 cells, 72 h [5]	Cell viability, C32 melanoma cells [5]
CC[C@H](C)[C@H](NC(=O)CNC(=O)[C@H](Cc1c[nH]c2ccccc12)NC(=O)CNC(=O)[C@@H]1CSSC[C@@H]2NC(=O)[C@H](CC(=O)O)NC(=O)[C@H](CC(=O)O)NC(=O)[C@H](Cc3c[nH]cn3)NC(=O)[C@H]([C@@H](C)O)NC(=O)[C@H](CCC(=O)O)NC(=O)[C@@H]3CSSC[C@H](NC(=O)[C@H]([C@@H](C)O)NC(=O)[C@H](CCC(N)=O)NC(=O)[C@H](CSSC[C@H](NC(=O)[C@@H](NC(=O)[C@@H]4CCCN4C(=O)[C@H](CC(=O)O)NC(=O)[C@@H](NC(=O)[C@@H]4CCCN4C(=O)[C@@H](N)Cc4ccc(O)cc4)C(C)C)[C@@H](C)CC)C(=O)N[C@@H](CC(N)=O)C(=O)N[C@@H](CCCCN)C(=O)N4CCC[C@H]4C(=O)N3)NC(=O)[C@H](Cc3ccccc3)NC(=O)[C@H](Cc3c[nH]c4ccccc34)NC(=O)[C@H](C)NC(=O)CNC(=O)[C@H](CO)NC2=O)C(=O)N[C@@H](Cc2ccc(O)cc2)C(=O)N[C@@H](Cc2ccc(O)cc2)C(=O)N[C@@H](C)C(=O)N[C@@H](CC(N)=O)C(=O)N[C@@H](Cc2c[nH]c3ccccc23)C(=O)N[C@@H](CO)C(=O)N1)C(=O)N[C@@H](CCCNC(=N)N)C(N)=O [1G10-ENI] (H-YPVDPICNKPCETHDDCSGAWFCQTCYYANWSCGWGIR-NH2; disulfide 7-23, 11-26, 17-33)	no change in peptide mass at 30 days; also recorded: highly stable	did not appreciably affect cell viability	no detectable cell permeability	< 0.003 ×10⁻⁶ cm/s	13%	did not appreciably affect cell viability
CC[C@H](C)[C@H](N)C(=O)N[C@@H](Cc1c[nH]c2ccccc12)C(=O)N1CCC[C@H]1C(=O)N[C@@H](CC(=O)O)C(=O)N1CCC[C@H]1C(=O)N[C@H](C(=O)N[C@H]1CSSC[C@@H]2NC(=O)[C@H](Cc3ccccc3)NC(=O)[C@H](Cc3c[nH]c4ccccc34)NC(=O)[C@H](C)NC(=O)CNC(=O)[C@H](CO)NC(=O)[C@@H]3CSSC[C@@H](C(=O)NCC(=O)N[C@@H](Cc4c[nH]c5ccccc45)C(=O)NCC(=O)N[C@H](C(=O)N[C@@H](CCCNC(=N)N)C(N)=O)[C@@H](C)CC)NC(=O)[C@H](CO)NC(=O)[C@H](Cc4c[nH]c5ccccc45)NC(=O)[C@H](CC(N)=O)NC(=O)[C@H](C)NC(=O)[C@H](Cc4ccc(O)cc4)NC(=O)[C@H](Cc4ccc(O)cc4)NC(=O)[C@H](CSSC[C@H](NC(=O)[C@@H]4CCCN4C(=O)[C@H](CCCCN)NC(=O)[C@H](CC(N)=O)NC1=O)C(=O)N[C@@H](CCC(=O)O)C(=O)N[C@@H]([C@@H](C)O)C(=O)N[C@@H](Cc1c[nH]cn1)C(=O)N[C@@H](CC(=O)O)C(=O)N[C@@H](CC(=O)O)C(=O)N3)NC(=O)[C@H]([C@@H](C)O)NC(=O)[C@H](CCC(N)=O)NC2=O)[C@@H](C)CC [1D3-ENI] (H-IWPDPICNKPCETHDDCSGAWFCQTCYYANWSCGWGIR-NH2; disulfide 7-23, 11-26, 17-33)		did not appreciably affect cell viability	no detectable cell permeability	< 0.003 ×10⁻⁶ cm/s	13%	did not appreciably affect cell viability
